The numbers were not newly measured in US12070523B2, “Sanitization of an article using in situ electrolysis” (APPLIED BIOCIDE GMBH, priority 2022, dated 2024), which cites them from elsewhere.

`[O-][Cl+2]([O-])O` [chlorate]: the “ADI (allowable daily intake)” value (as ClO3^−) is 0.0024 mg/kg BW·day. Besides, for the setting “chronic exposure, Commission Regulation (EU) 2020/749”, the “Maximum residue level (MRL), smallest MRL used as worst-case” value was 0.05 mg/kg BW·day.
